Reference: patent US20250351832A1, “PHYTOCHEMICALS AS BIOPESTICIDES AND BIOSTIMULANTS” (KAY BEE BIO ORGANICS PVT. LTD., priority 2024, published 2025)
“Also recorded” adds a separate entry of the source. Like-named read-outs stand apart in the source and are kept apart here.

Key:
Mite [1] = details: mite on okra plants, green house, dose 1 ml/gm/lit. spray; for % Mortality at 48 Hrs. / Total No. of dead insect at 48 Hrs.: 48 hrs after application; for % Corrected Mortality at 48 Hrs.: corrected for water control
Helicoverpa armigera [2] = details: Helicoverpa armigera 3rd instar on chickpea plants, dose 1 ml/gm/lit. spray; for % Mortality at 72 Hrs.: 72 hrs after application; for % Corrected Mortality at 72 Hrs.: corrected for water control
Thrips [3] = details: Thrips on cotton leaves; dose 1 ml/gm/lit.; 10 insects/treatment; 48 hrs after application
Thrips [4] = test: whole plant or invertebrate; details: in Gossypium hirsutum, 48 h
tomato seedlings = test: Response of tomato plants, greenhouse growth (Ex. 30); format: in vivo; details: tomato seedlings, dose 1 ml/gm/lit; for Plant Height 5th Day / Stem Girth 5th Day / CCI 5th Day: 5th day after application; for Plant Height 10th Day / Stem Girth 10th Day / CCI 10th Day: 10th day after application; for Plant Height % Increase over pre on 10th Day / Stem Girth % Increase over pre on 10th Day / CCI % Increase over pre on 10th Day / Root Length (cm) 10th Day / Root Length % Increase over control: 10th day; for Root Length % Increase over control: vs water control
Aphid [5] = details: for Total No. of dead insect at 48 Hrs.: 10 insects/treatment, 4 replications, cotton leaves
Alternaria alternata [6] = test: Alternaria leaf spot/blight on inoculated tomato plants (Ex. 28); format: in vivo; details: tomato plants, Alternaria alternata; after 7 days; dose 1 ml/gm/lit
[7] = cited from earlier work; for Phytotonic Effect: Table 13, effect on plants, descriptive
Aphid [8] = details: Aphids on cotton plants, green house; dose 1 ml/gm/lit.; 10 insects/plant, 10 plants/treatment; 48 hrs
Mite [9] = details: for Total No. of dead insect at 48 Hrs.: 10 insects/treatment, 4 replications, okra leaves
Aphid [10] = test: whole plant or invertebrate; details: 48 h
Spodoptera litura [11] = details: Spodoptera litura 3rd instar on cabbage plants, dose 1 ml/gm/lit. spray; for % Mortality at 72 Hrs.: 72 hrs after application; for % Corrected Mortality at 72 Hrs.: corrected for water control
Alternaria alternata [12] = test: In vitro poisoned food technique against fungus (Ex. 20); format: cell-based; details: poisoned food technique, PDA medium, dose 1 ml/gm/lit., after seven days; for inhibition of growth at 1 mL or g/L: vs untreated control, read-out: % Inhibition of growth
Spodoptera litura [13] = details: Spodoptera litura on castor leaves; dose 1 ml/gm/lit.; 10 insects/treatment; 72 hrs after application
Mealy Bug [14] = details: Mealy Bug on cotton leaves, dose 1 ml/gm/lit., 48 Hrs.; for Total No. of dead insect at 48 Hrs.: 10 insects/treatment, 4 replications; for % Corrected Mortality at 48 Hrs.: corrected for water control
Spodoptera litura [15] = test: whole plant or invertebrate; details: 72 h
Thrips [16] = details: thrips on cotton plants, greenhouse, dose 1 ml/gm/lit. spray; for % Corrected Mortality at 48 Hrs.: corrected for water control
Mealy Bug [17] = details: mealy bug on cotton plants, green house, dose 1 ml/gm/lit. spray; for % Mortality at 48 Hrs. / Total No. of dead insect at 48 Hrs.: 48 hrs after application; for % Corrected Mortality at 48 Hrs.: corrected for water control
chili seedlings = test: Response of chili plants, greenhouse growth (Ex. 31); format: in vivo; details: chili seedlings, dose 1 ml/gm/lit; for CCI 5th Day / Plant Height (cm) 5th Day: 5th day after application; for CCI 10th Day / Plant Height (cm) 10th Day: 10th day after application; for CCI % Increase over pre on 10th Day / Plant Height % Increase over pre on 10th Day / Root Lenght (cm) 10th Day / Stem Girth % Increase over pre on 10th Day / Root Lenght % Increase over control: 10th day; for Root Lenght % Increase over control: vs water control
Helicoverpa armigera [18] = details: Helicoverpa armigera on okra fruits, dose 1 ml/gm/lit., 72 Hrs.; for Total No. of dead insect at 72 Hrs.: 10 insects/treatment, 4 replications; for % Corrected Mortality at 72 Hrs.: corrected for water control
[19] = read-out: % Corrected Mortality at 48 Hrs.
[20] = read-out: % Mortality at 48 Hrs.
[21] = read-out: % Corrected Mortality at 72 Hrs.
[22] = read-out: % Mortality at 72 Hrs.
[23] = Table 13, descriptive, no test described

## CC1=CCC2CC1C2(C)C (stereo not drawn) [Alpha-pinene]
Mite [1]
  % Mortality at 48 Hrs.: 32.50%
  Total No. of dead insect at 48 Hrs.: 32.50
  % Corrected Mortality at 48 Hrs.: 28.95%
Helicoverpa armigera [2]
  % Mortality at 72 Hrs.: 67.50%
  % Corrected Mortality at 72 Hrs.: 67.50%
Thrips [3]
  Total No. of dead insect at 48 Hrs.: 4.25
Thrips [4]; [19]
  mortality at 1 mL or g/L: 34.3%
Thrips [4]; [20]
  mortality at 1 mL or g/L: 42.5%
Tomato seedlings
  Plant Height 5th Day: 7.24 cm
  Stem Girth 5th Day: 2.01 mm
  Plant Height 10th Day: 7.74 cm
  Stem Girth 10th Day: 2.22 mm
  Plant Height % Increase over pre on 10th Day: 26.47%
  Stem Girth % Increase over pre on 10th Day: 55.24%
  CCI 5th Day: 13.65
  CCI % Increase over pre on 10th Day: 25.17%
  Root Length (cm) 10th Day: 4.30 cm
  CCI 10th Day: 14.32
  Root Length % Increase over control: 29.14%
Aphid [5]; Dose 1 ml/gm/lit.
  Total No. of dead insect at 48 Hrs.: 5.75
Aphid [5]; Dose 1 ml/gm/lit., 48 hrs
  % Corrected Mortality at 48 Hrs.: 51.43%
  % Mortality at 48 Hrs.: 57.50%
Alternaria alternata [6]
  % Disease reduction over Control: 42.15%
[7]
  Phytotonic Effect: Trigger plant; also recorded: Boost chlorophyll
Aphid [8]
  Total No. of dead insect at 48 Hrs.: 60.00
Mite [9]; Dose 1 ml/gm/lit.
  Total No. of dead insect at 48 Hrs.: 4.00
Mite [9]; Dose 1 ml/gm/lit., 48 hrs
  % Corrected Mortality at 48 Hrs.: 35.14%
  % Mortality at 48 Hrs.: 40.00%
Aphid [10]; [19]
  mortality at 1 mL or g/L: 52.9%
Aphid [10]; [20]
  mortality at 1 mL or g/L: 60%
Spodoptera litura [11]
  % Mortality at 72 Hrs.: 55.00%
  % Corrected Mortality at 72 Hrs.: 52.63%
Alternaria alternata [12]
  Mean colony Diameter (mm): 71.50 mm
  inhibition of growth at 1 mL or g/L: 18.8%
Spodoptera litura [13]
  Total No. of dead insect at 72 Hrs.: 5.00
Mealy Bug [14]
  Total No. of dead insect at 48 Hrs.: 5.25
  % Mortality at 48 Hrs.: 52.50%
  % Corrected Mortality at 48 Hrs.: 50.00%
Spodoptera litura [15]; [21]
  mortality at 1 mL or g/L: 47.4%
Spodoptera litura [15]; [22]
  mortality at 1 mL or g/L: 50%
Thrips [16]; 48 hrs after application
  Total No. of dead insect at 48 Hrs.: 42.50
Thrips [16]
  % Corrected Mortality at 48 Hrs.: 36.11%
Mealy Bug [17]
  % Mortality at 48 Hrs.: 60.00%
  Total No. of dead insect at 48 Hrs.: 60.00
  % Corrected Mortality at 48 Hrs.: 55.56%
Chili seedlings
  CCI 5th Day: 11.40
  Plant Height (cm) 5th Day: 6.35 cm
  CCI % Increase over pre on 10th Day: 36.59%
  Plant Height % Increase over pre on 10th Day: 51.74%
  Root Lenght (cm) 10th Day: 3.23 cm
  Stem Girth % Increase over pre on 10th Day: 41.80%
  CCI 10th Day: 12.58
  Plant Height (cm) 10th Day: 6.54 cm
  Root Lenght % Increase over control: 17.88%
Helicoverpa armigera [18]
  Total No. of dead insect at 72 Hrs.: 7.00
  % Mortality at 72 Hrs.: 70.00%
  % Corrected Mortality at 72 Hrs.: 70.00%

## Cc1ccc(C(C)C)c(O)c1 [Thymol]
Mite [1]
  % Mortality at 48 Hrs.: 62.50%
  Total No. of dead insect at 48 Hrs.: 62.50
  % Corrected Mortality at 48 Hrs.: 60.53%
Helicoverpa armigera [2]
  % Mortality at 72 Hrs.: 62.50%
  % Corrected Mortality at 72 Hrs.: 62.50%
Thrips [3]
  Total No. of dead insect at 48 Hrs.: 3.25
Thrips [4]; [19]
  mortality at 1 mL or g/L: 22.9%
Thrips [4]; [20]
  mortality at 1 mL or g/L: 32.5%
Tomato seedlings
  Plant Height 5th Day: 6.81 cm
  Stem Girth 5th Day: 1.90 mm
  Plant Height 10th Day: 7.62 cm
  Stem Girth 10th Day: 2.53 mm
  Plant Height % Increase over pre on 10th Day: 30.48%
  Stem Girth % Increase over pre on 10th Day: 61.42%
  CCI 5th Day: 14.12
  CCI % Increase over pre on 10th Day: 22.87%
  Root Length (cm) 10th Day: 4.82 cm
  CCI 10th Day: 15.42
  Root Length % Increase over control: 44.89%
Aphid [5]; Dose 1 ml/gm/lit.
  Total No. of dead insect at 48 Hrs.: 6.25
Aphid [5]; in vivo
  % Corrected Mortality at 48 Hrs.: 57.14%
Alternaria alternata [6]
  % Disease reduction over Control: 61.16%
[7]; [23]
  Antioxidant Activity - Mode of action: Antioxidant and food
  Bactericidal Activity - Mode of action: Growth inhibition
  Insecticidal Activities - Mode of action: Inhibited the growth,
  Virucidal Activity - Mode of action: Inhibit virus replication
[7]
  Phytotonic Effect: Improves
Aphid [8]
  Total No. of dead insect at 48 Hrs.: 62.50
Mite [9]; Dose 1 ml/gm/lit.
  Total No. of dead insect at 48 Hrs.: 6.00
Mite [9]; in vivo
  % Corrected Mortality at 48 Hrs.: 56.76%
  % Mortality at 48 Hrs.: 60.00%
Aphid [10]; [19]
  mortality at 1 mL or g/L: 55.9%
Aphid [10]; [20]
  mortality at 1 mL or g/L: 62.5%
Spodoptera litura [11]
  % Mortality at 72 Hrs.: 65.00%
  % Corrected Mortality at 72 Hrs.: 63.16%
Alternaria alternata [12]
  Mean colony Diameter (mm): 51.50 mm
  inhibition of growth at 1 mL or g/L: 41.5%
Spodoptera litura [13]
  Total No. of dead insect at 72 Hrs.: 6.75
Mealy Bug [14]
  Total No. of dead insect at 48 Hrs.: 5.50
  % Mortality at 48 Hrs.: 55.00%
  % Corrected Mortality at 48 Hrs.: 52.63%
Spodoptera litura [15]; [21]
  mortality at 1 mL or g/L: 65.8%
Spodoptera litura [15]; [22]
  mortality at 1 mL or g/L: 67.5%
Thrips [16]; 48 hrs after application
  % Mortality at 48 Hrs.: 35.00%
  Total No. of dead insect at 48 Hrs.: 35.00
Thrips [16]
  % Corrected Mortality at 48 Hrs.: 27.78%
Mealy Bug [17]
  % Mortality at 48 Hrs.: 55.00%
  Total No. of dead insect at 48 Hrs.: 55.00
  % Corrected Mortality at 48 Hrs.: 50.00%
Chili seedlings
  CCI 5th Day: 13.80
  Plant Height (cm) 5th Day: 6.13 cm
  CCI % Increase over pre on 10th Day: 75.74%
  Plant Height % Increase over pre on 10th Day: 58.04%
  Root Lenght (cm) 10th Day: 3.77 cm
  Stem Girth % Increase over pre on 10th Day: 51.36%
  CCI 10th Day: 14.85
  Plant Height (cm) 10th Day: 7.27 cm
  Root Lenght % Increase over control: 37.87%
Helicoverpa armigera [18]
  Total No. of dead insect at 72 Hrs.: 6.50
  % Mortality at 72 Hrs.: 65.00%
  % Corrected Mortality at 72 Hrs.: 65.00%
